Like-named read-outs stand apart in the source and are kept apart here.
What was measured:
Assay type in all cases: cell-based
Nrf2 = molecular target: T1, Nrf2 (Homo sapiens, UniProt Q16236); test: Nrf2 degradation in A549 HiBiT-Nrf2 cells, Nano-Glo HiBiT lytic detection (HiBiT readout); set-up: host or cells: A549 HiBiT-Nrf2 cells (engineered line bought from Promega)
T1 sequence (Q16236 1-605): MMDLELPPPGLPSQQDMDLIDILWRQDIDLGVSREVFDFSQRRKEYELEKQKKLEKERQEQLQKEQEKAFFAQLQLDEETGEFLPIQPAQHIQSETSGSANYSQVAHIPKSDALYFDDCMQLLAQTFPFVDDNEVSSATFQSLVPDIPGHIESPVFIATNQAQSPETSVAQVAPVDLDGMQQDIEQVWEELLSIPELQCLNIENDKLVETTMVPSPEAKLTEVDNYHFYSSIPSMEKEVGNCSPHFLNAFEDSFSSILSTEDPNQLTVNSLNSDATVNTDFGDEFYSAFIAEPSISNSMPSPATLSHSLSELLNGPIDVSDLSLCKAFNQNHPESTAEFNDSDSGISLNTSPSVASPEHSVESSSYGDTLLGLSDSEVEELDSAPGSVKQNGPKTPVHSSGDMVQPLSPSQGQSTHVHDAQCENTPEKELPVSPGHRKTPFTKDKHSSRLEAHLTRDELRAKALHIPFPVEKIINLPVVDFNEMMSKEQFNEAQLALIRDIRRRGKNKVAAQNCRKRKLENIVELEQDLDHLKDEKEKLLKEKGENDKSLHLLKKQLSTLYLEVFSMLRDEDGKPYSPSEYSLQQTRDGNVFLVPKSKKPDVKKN
Experimental: A549 HiBiT-Nrf2 cells (Promega, Cat. No. CS3023219) were seeded into 384-well plates at cell density of 5,000 cells/well in 40 μL of cell culture medium (Ham's F-12 Nutrient Mix supplemented with 10% FBS and 1% antibiotic-antimycotic).
The next day, cells were treated with representative Compounds of the Disclosure and incubated for 6 h and 20 h at 37° C., 5% CO2. Staurosporine was used as a control.
At the end of incubation Nrf2 degradation (HiBiT readout) and cell viability (CellTiter-Glo readout) were determined. For HiBiT readout, Nano-Glo HiBiT Reagent mix (Promega, Cat. No. N3050) was added to wells, plates were incubated 2 min on an orbital shaker and incubated at room temperature in the dark for additional 30 minutes. At the end of incubation luminescence was measured using ultrasensitive luminescence mode (Envision, Perkin Elmer).

LK-2 = test: Cancer cell viability, LK-2 (CellTiter-Glo); details: LK-2 cells, 3 days, read-out: Cellular IC50 (μM) LK-2
Experimental: (§1) Representative Compounds of the Disclosure were tested in A549 (Vendor: ATCC; Cat #CCL-185; Description: lung, carcinoma) and/or LK-2 (Vendor: Riken; Cat #RCB1970; Description: lung, squamous cell carcinoma) cellular viability assays according to the following general protocol. • 1. Observed the cells under microscope. • 2. Aspirated the media and added 5 mL trypsin and incubate for 3 mins. • 3. Added 10 mL fresh media and harvested all the cells in to 15 mL tubes. • 4. Centrifuged the cells at 1000 rpm for 5 mins. • 5. Re-suspended the cells with 11 mL media and took 1 mL to determine the cell number and viability. • 6. Prepared cells suspension at 20 K/mL (A549) or 35 K/mL (LK-2) • 7. Seeded the cells into 96-well plate and incubated for overnight. • 8. Added compounds into each well with a HPD300 machine (nine three-fold dilutions typically starting at 30 µM final concentration) and incubated for 3 days. • 9. After 3 days, took out the plates from the incubator and observed the cells under microscope. • 10. Passed a film at the bottom of the plates. • 11. Equilibrated the plate and its contents at room temperature for approximately 30 minutes. • 12. Thawed the CellTiter-Glo® Buffer and equilibrated to room temperature prior to use. • 13. Equilibrated the lyophilized CellTiter-Glo® Substrate to room temperature prior to use. • 14. Transferred 100 ml of CellTiter-Glo® Buffer into the amber bottle containing CellTiter-Glo® Substrate to reconstituted the lyophilized enzyme/substrate mixture. • 15. Mixed by gently vortexing, swirling or inverting the contents to obtain a homogeneous solution. • 16. Added 100 μL CellTiter-Glo® Reagent into each well • 17. Mixed contents for 15 minutes on an orbital shaker to induce cell lysis. • 18. Recorded luminescence with EnSpire machine. • 19. Passed the raw data into the file and analyzed the data with XLfit software.

A549 = test: Cancer cell viability, A549 (CellTiter-Glo); details: Homo sapiens, 72 h, A549 cells, 3 days, read-out: Cellular IC50 (μM) A549
Experimental: as §1, with “Added compounds into each well with a HPD300 machine (nine three-fold dilutions typically starting at 30 µM final concentration) and incubated for 3 days. • 9.” left out

[1] = 6 h, read-out: DC50 (nM) at 6 h
[2] = 20 h, read-out: DC50 (nM) at 20 h

Compound | DC50 (Nrf2; [1]) [nM] | DC50 (Nrf2; [2]) [nM] | IC50 (LK-2; Homo sapiens, LK-2, 72 h) [µM] | IC50 (A549) [µM] | IC50 (LK-2) [µM]
Cc1ccccc1C(=O)N1CCc2cc(-c3nc(NC(=O)Cc4cccc(OCCOCCNc5ccc6c(c5)C(=O)N(C5CCC(=O)NC5=O)C6=O)c4)sc3C)ccc21 (stereo not drawn) [Cpd. No. 20, 2-(3-(2-(2-((2-(2,6-dioxopiperidin-3-yl)-1,3-dioxoisoindolin-5-yl)amino)ethoxy)ethoxy)phenyl)-N-(5-methyl-4-(1-(2-methylbenzoyl)indolin-5-yl)thiazol-2-yl)acetamide] | 300 to 3000 | 300 to 3000 | 0.06 | 0.3 | –
Cc1sc(NC(=O)Cc2cccc(OCCOCCNc3ccc4c(c3)C(=O)N(C3CCC(=O)NC3=O)C4=O)c2)nc1-c1ccc2c(c1)CCN2C(=O)c1cncn1C (stereo not drawn) [Cpd. No. 23, 2-(3-(2-(2-((2-(2,6-dioxopiperidin-3-yl)-1,3-dioxoisoindolin-5-yl)amino)ethoxy)ethoxy)phenyl)-N-(5-methyl-4-(1-(1-methyl-1H-imidazole-5-carbonyl)indolin-5-yl)thiazol-2-yl)acetamide] | – | – | 0.02 | 0.09 | –
Cc1ccccc1C(=O)N1CCc2cc(-c3nc(NC(=O)Cc4cccc(OCCCCN5CCN(c6ccc7c(c6)C(=O)N(C6CCC(=O)NC6=O)C7=O)CC5)c4)sc3C)ccc21 (stereo not drawn) [Cpd. No. 26, 2-(3-(4-(4-(2-(2,6-dioxopiperidin-3-yl)-1,3-dioxoisoindolin-5-yl)piperazin-1-yl)butoxy)phenyl)-N-(5-methyl-4-(1-(2-methylbenzoyl)indolin-5-yl)thiazol-2-yl)acetamide] | – | – | 0.8 | > 30 | –
Cc1sc(NC(=O)Cc2ccc(F)c(OCCOCCNc3ccc4c(c3)C(=O)N(C3CCC(=O)NC3=O)C4=O)c2)nc1-c1ccc2c(c1)CCN2C(=O)c1cncn1C (stereo not drawn) [Cpd. No. 29, 2-(3-(2-(2-((2-(2,6-dioxopiperidin-3-yl)-1,3-dioxoisoindolin-5-yl)amino)ethoxy)ethoxy)-4-fluorophenyl)-N-(5-methyl-4-(1-(1-methyl-1H-imidazole-5-carbonyl)indolin-5-yl)thiazol-2-yl)acetamide] | < 300 | < 300 | 0.01 | 0.05 | 0.02
Cc1ccccc1C(=O)N1CCc2cc(-c3nc(NC(=O)Cc4cccc(OCCCCN5CCN(c6cccc7c6C(=O)N(C6CCC(=O)NC6=O)C7=O)CC5)c4)sc3C)ccc21 (stereo not drawn) [Cpd. No. 33, 2-(3-(4-(4-(2-(2,6-dioxopiperidin-3-yl)-1,3-dioxoisoindolin-4-yl)piperazin-1-yl)butoxy)phenyl)-N-(5-methyl-4-(1-(2-methylbenzoyl)indolin-5-yl)thiazol-2-yl)acetamide] | – | – | > 30 | > 30 | –
Cc1sc(C(=O)NCc2cccc(OCCOCCNc3ccc4c(c3)C(=O)N(C3CCC(=O)NC3=O)C4=O)c2)nc1-c1ccc2c(c1)CCN2C(=O)C1CC1 (stereo not drawn) [Cpd. No. 38, 4-(1-(cyclopropanecarbonyl)indolin-5-yl)-N-(3-(2-(2-((2-(2,6-dioxopiperidin-3-yl)-1,3-dioxoisoindolin-5-yl)amino)ethoxy)ethoxy)benzyl)-5-methylthiazole-2-carboxamide] | – | – | 0.04 | 0.2 | –
Cc1sc(C(=O)Nc2cccc(OCCOCCNc3ccc4c(c3)C(=O)N(C3CCC(=O)NC3=O)C4=O)c2)nc1-c1ccc2c(c1)CCN2C(=O)C1CC1 (stereo not drawn) [Cpd. No. 39, 4-(1-(cyclopropanecarbonyl)indolin-5-yl)-N-(3-(2-(2-((2-(2,6-dioxopiperidin-3-yl)-1,3-dioxoisoindolin-5-yl)amino)ethoxy)ethoxy)phenyl)-5-methylthiazole-2-carboxamide] | – | – | > 30 | > 30 | –

Second part, the compound after the results:

DC50 (Nrf2; [1]) [nM] | DC50 (Nrf2; [2]) [nM] | IC50 (LK-2; Homo sapiens, LK-2, 72 h) [µM] | IC50 (A549) [µM] | IC50 (LK-2) [µM] | Compound
300 to 3000 | > 3000 | 0.04 | 0.1 | – | Cc1ccccc1C(=O)N1CCc2cc(-c3nc(NC(=O)Cc4cccc(OCCOCCOc5ccc6c(c5)C(=O)N(C5CCC(=O)NC5=O)C6=O)c4)sc3C)ccc21 (stereo not drawn) [Cpd. No. 18, 2-(3-(2-(2-((2-(2,6-dioxopiperidin-3-yl)-1,3-dioxoisoindolin-5-yl)oxy)ethoxy)ethoxy)phenyl)-N-(5-methyl-4-(1-(2-methylbenzoyl)indolin-5-yl)thiazol-2-yl)acetamide]
< 300 | < 300 | 0.03 | 0.08 | – | Cc1sc(NC(=O)Cc2ccc(F)c(OCCOCCNc3ccc4c(c3)C(=O)N(C3CCC(=O)NC3=O)C4=O)c2)nc1-c1ccc2c(c1)CCN2C(=O)C1CC1 (stereo not drawn) [Cpd. No. 27, N-(4-(1-(cyclopropanecarbonyl)indolin-5-yl)-5-methylthiazol-2-yl)-2-(3-(2-(2-((2-(2,6-dioxopiperidin-3-yl)-1,3-dioxoisoindolin-5-yl)amino)ethoxy)ethoxy)-4-fluorophenyl)acetamide]
< 300 | < 300 | 0.01 | 0.03 | – | Cc1sc(NC(=O)Cc2ccc(F)c(OCCOCCNc3ccc4c(c3)CN(C3CCC(=O)NC3=O)C4=O)c2)nc1-c1ccc2c(c1)CCN2C(=O)C1CC1 (stereo not drawn) [Cpd. No. 28, N-(4-(1-(cyclopropanecarbonyl)indolin-5-yl)-5-methylthiazol-2-yl)-2-(3-(2-(2-((2-(2,6-dioxopiperidin-3-yl)-1-oxoisoindolin-5-yl)amino)ethoxy)ethoxy)-4-fluorophenyl)acetamide]
– | – | > 30 | > 30 | – | Cc1ccccc1C(=O)N1CCc2cc(-c3nc(NC(=O)Cc4cccc(OCCCN5CCN(c6ccc7c(c6)C(=O)N(C6CCC(=O)NC6=O)C7=O)CC5)c4)sc3C)ccc21 (stereo not drawn) [compound 25, 2-(3-(3-(4-(2-(2,6-dioxopiperidin-3-yl)-1,3-dioxoisoindolin-5-yl)piperazin-1-yl)propoxy)phenyl)-N-(5-methyl-4-(1-(2-methylbenzoyl)indolin-5-yl)thiazol-2-yl)acetamide]

Reference: patent US20260055097A9, “NRF2 PROTEIN DEGRADERS” (Ganymede Oncology, Inc., priority 2022, published 2026)
